According to patent US12376614B2, “Method for producing hop processed product” (SUNTORY HOLDINGS LIMITED, priority 2016, dated 2025):

Key:
[1] = test system: 3T3-L1 cells; assay: Anti-adipocyte differentiation in 3T3-L1 cells (Oil Red O, WST-8 viability); assay type: cell-based; conditions: positive control, commercially available reagent, 50 μM
Procedure: [formula] formula (1) <Anti-Adipocyte Differentiation> [Reagents] • Dulbecco's modified eagle medium (DMEM): 10% FBS (fetal bovine sera) and 1% penicillin/streptomycin were added thereto. • TrypLE™ Select (1×) • IBMX: prepared to have a concentration of 0.5 mM with DMSO. • DEX: prepared to have a concentration of 1 μM with DMSO. • insulin solution human • WST-8: upon use, diluted with the DMEM medium to give a 2% WST-8. • Oil Red O: prepared to have a concentration of 5 mg/mL with isoPrOH, and upon use, diluted with pure water to give a 60% Oil Red O. [Method] • Day 1: 3T3-L1 Cells were previously cultured in a 10 cm dish to a state of 70 to 80% confluent. […] One-hundred microliters of the medium was transferred to a fresh 96-well plate, and the absorbance at 450 nm was measured with a microplate reader. Using those cells, a cell viability (%) was calculated as a relative value to the control. […] The 96-well plate was dried, 50 μL of 100% isoPrOH was added thereto, a mixture was allowed to stand at room temperature for 10 minutes, and the absorbance at 520 nm was then measured. Using those cells, an adipocyte differentiation (%) was calculated as a relative value to the control.

[2] = Antioxidant activity (DPPH radical scavenging rate); assay type: biochemical; conditions: positive control, commercially available reagent, 12.5 μM
Procedure: Each sample dissolved in DMSO was dissolved in a 50 v/v % EtOH, so as to prepare a sample solution having a concentration of 25, 50, and 100 μg/mL, and dispensed in each well of a 96-well plate in an amount of 100 μL each. Thereto was added 100 μL each of a DPPH solution dissolved in EtOH so as to have a concentration of 0.1 mM, and the mixture was stirred with vortex (final concentration: 12.5, 25, or 50 μg/mL). Next, the plate was made light-resistant with an aluminum foil, and allowed to stand at room temperature (25° C.) for 30 minutes, and the absorbance at 517 nm was then measured (n=3). Using the absorbance obtained, the DPPH radical scavenging rate (%) was calculated according to the following formula (1). Here, as for the blank, the absorbance was measured in the same manner as the sample solutions except that a 50 v/v % EtOH containing 0.2% DMSO was used.
The 3T3-L1 cells were detached with TrypLE™ Select, and diluted with a DMEM medium to a concentration of 1.0×10^5 cells/mL, 100 μL each of a cell suspension was then dispensed into a 96-well plate, and the cells were cultured at 37° C. under 5% CO2. • Day 3: Each sample was prepared using a differentiation and induction medium (0.1% IBMX, 0.01% DEX). […] One-hundred microliters of the medium was transferred to a fresh 96-well plate, and the absorbance at 450 nm was measured with a microplate reader. […]

Structure (SMILES) | anti-adipocyte differentiation [1] | antioxidant activity [2]
O=c1c(O)c(-c2ccc(O)c(O)c2)oc2cc(O)cc(O)c12 [Quercetin] | 50% | 
O=C1O[C@H]([C@@H](O)CO)C(O)=C1O [Vitamin C] |  | 70%
